Active and inactive are the calls of the source. No cut-off for these calls is given here.
What was measured:
Rattus norvegicus [1] = experiment: Induction of intestinal calcium transport in vitamin D-deficient Sprague-Dawley rat assessed as ratio of serosal to mucosal calcium level at 87 pmol, ip administered as 4 consecutive daily doses measured after 24 hrs post last dose by gut sac assay relative to 1alpha,25-(OH)2D3; format: functional, organism-based
Rattus norvegicus [2] = experiment: Induction of bone calcium mobilization in vitamin D-deficient Sprague-Dawley rat assessed as serum calcium level at 87 pmol, ip administered as 4 consecutive daily doses measured after 24 hrs post last dose by spectrometry relative to 1alpha,25-(OH)2D3; format: functional, organism-based
[3] = molecular target: T1, Vitamin D3 receptor (Homo sapiens) (UniProt P11473); experiment: Potency index, ratio of ED50 for 1-alpha,25-(OH)2D3 to ED50 for test compound for agonist activity at VDR in human HL60 cells assessed as induction of cell differentiation of promyelocytes to monocytes after 4 days by NBT reduction assay; format: cell-based; conditions: HL-60
T1 sequence (whole entry): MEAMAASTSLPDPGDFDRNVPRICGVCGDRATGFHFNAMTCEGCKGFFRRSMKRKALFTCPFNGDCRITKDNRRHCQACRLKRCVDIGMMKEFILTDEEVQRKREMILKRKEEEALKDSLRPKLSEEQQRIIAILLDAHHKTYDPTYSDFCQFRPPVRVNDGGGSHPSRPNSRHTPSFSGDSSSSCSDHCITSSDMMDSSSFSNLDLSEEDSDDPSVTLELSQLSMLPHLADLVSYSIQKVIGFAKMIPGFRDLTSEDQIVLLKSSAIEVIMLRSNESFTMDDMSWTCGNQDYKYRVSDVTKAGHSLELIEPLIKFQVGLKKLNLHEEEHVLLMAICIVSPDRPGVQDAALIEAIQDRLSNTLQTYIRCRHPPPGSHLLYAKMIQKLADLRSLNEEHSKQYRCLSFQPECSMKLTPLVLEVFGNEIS

[4] = molecular target: T2, Vitamin D3 receptor (Rattus norvegicus) (UniProt P13053); experiment: Potency index, ratio of Ki for 1-alpha,25-(OH)2D3 to Ki for test compound for displacement of [3H]1-alpha,25-(OH)2D3 from rat recombinant full length VDR
T2 sequence (whole entry): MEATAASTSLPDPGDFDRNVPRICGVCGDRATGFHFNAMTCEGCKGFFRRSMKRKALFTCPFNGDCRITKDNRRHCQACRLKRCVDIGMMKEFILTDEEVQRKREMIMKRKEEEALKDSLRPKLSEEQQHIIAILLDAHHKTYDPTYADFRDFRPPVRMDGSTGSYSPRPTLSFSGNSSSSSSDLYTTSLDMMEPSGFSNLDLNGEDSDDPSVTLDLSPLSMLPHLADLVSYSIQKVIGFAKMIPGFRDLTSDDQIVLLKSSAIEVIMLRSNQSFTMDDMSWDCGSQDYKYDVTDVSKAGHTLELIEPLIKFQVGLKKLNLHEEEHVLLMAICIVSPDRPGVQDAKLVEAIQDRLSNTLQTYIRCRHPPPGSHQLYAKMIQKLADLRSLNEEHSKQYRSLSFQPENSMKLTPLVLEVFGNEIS

Rattus norvegicus [5] = experiment: Induction of intestinal calcium transport in vitamin D-deficient Sprague-Dawley rat assessed as ratio of serosal to mucosal calcium level at 780 pmol, ip administered as 4 consecutive daily doses measured after 24 hrs post last dose by gut sac assay relative to 1alpha,25-(OH)2D3; format: functional, organism-based
[6] = molecular target: T2, Vitamin D3 receptor (Rattus norvegicus); experiment: Potency index, ratio of ED50 for 1-alpha,25-(OH)2D3 to ED50 for test compound for agonist activity at rat recombinant full length VDR expressed in rat ROS 17/2.8 cells transfected with 24-hydroxylase gene promoter assessed as transcriptional activation after 16 hrs by luciferase reporter gene assay; format: cell-based
Rattus norvegicus [7] = experiment: Induction of bone calcium mobilization in vitamin D-deficient Sprague-Dawley rat assessed as serum calcium level at 780 pmol, ip administered as 4 consecutive daily doses measured after 24 hrs post last dose by spectrometry relative to 1alpha,25-(OH)2D3; format: functional, organism-based

Row | Structure (SMILES) | Activity (Rattus norvegicus [1]) | Activity (Rattus norvegicus [2]) | Ratio ED50 [3] | Ratio Ki [4] | Activity (Rattus norvegicus [5]) | Ratio ED50 [6] | Activity (Rattus norvegicus [7])
1 | C=C1[C@H](O)CC(=C/C=C2\CCC[C@]3(C)[C@@H]([C@@H](C)C(=C)CCC4(O)CCCC4)CC[C@@H]23)C[C@H]1O | Active | Active | 29 | 1 | Active | 20 | Active
2 | C=C1[C@H](O)CC(=C/C=C2\CCC[C@]3(C)[C@@H]([C@@H](C)C(=C)CCC(C)(C)O)CC[C@@H]23)C[C@H]1O | Active | Active | 4 | 0.5 | Active | 2.5 | Active
3 | C=C1[C@H](O)CC(=C/C=C2\CCC[C@]3(C)[C@@H]([C@@H](C)C(=C)CCCC(O)(CC)CC)CC[C@@H]23)C[C@H]1O | Active | Active | 50 | 0.5 | Active | 6.7 | Active
4 | C=C1[C@H](O)CC(=C/C=C2\CCC[C@]3(C)[C@@H]([C@@H](C)C(=C)CCC(C)C)CC[C@@H]23)C[C@H]1O | Active | Active | 0.1 | 0.01 | Active | 0.05 | Active
5 | C=C1[C@H](O)CC(=C/C=C2\CCC[C@]3(C)[C@@H]([C@@H](C)C(=C)CCCC(C)(C)O)CC[C@@H]23)C[C@H]1O | Active | Active | 50 | 1 | Active | 20 | Active
6 | C=C1[C@H](O)CC(=C/C=C2\CCC[C@]3(C)[C@@H]([C@@H](C)C(=C)CCC(O)(CC)CC)CC[C@@H]23)C[C@H]1O | Active | Active | 10 | 1 | Active | 6.7 | Active
7 | C=C1[C@H](O)CC(=C/C=C2\CCC[C@]3(C)[C@@H]([C@@H](C)CCCC(C)(C)O)CC[C@@H]23)C[C@H]1O |  |  | 25 | 1 |  | 29 | 

— ChEMBL document CHEMBL4616676, “Synthesis and Biological Activity of 2,22-Dimethylene Analogues of 19-Norcalcitriol and Related Compounds” (J Med Chem, 2020)
